Where “and” joins values, the source holds several entries; their conditions need not be identical. Equal entries are not always repeated.
What was measured:
[1] = tested on: BV2 microglial cells, stimulated with lipopolysaccharide (LPS); assay: TNFα ELISA in LPS-stimulated BV2 cells; assay type: cell-based, mouse; conditions: 0.1, 1.0, 2.5, 5.0 μM
Method: (§1) BV2 cells were a gift from Dr. Bob McCusker, University of Illinois. They were cultured and maintained at 37 °C in a humidified atmosphere of 95% air and 5% CO2 in high-glucose Dulbecco’s modified Eagle’s (DMEM) medium (Cat No. 10-013-CV, Corning Life Sciences), supplemented with 5% heat-inactivated fetal bovine serum (FBS), streptomycin (100 μg/mL), and penicillin (100 units/mL). Stocks of all the minor cannabinoids were made in ethanol and stored at −80 °C and diluted as required before cell treatment. A final concentration of ethanol was maintained at 0.1% in the cell culture experiments.
(§2) BV-2 cells were plated at a density of 50 000 cells/well in a 24-well plate at 37 °C under controlled conditions. Cells were pretreated with the minor cannabinoids at various concentrations (0.1, 1.0, 2.5, 5.0 μM) for 4 h and then stimulated with LPS for 24 h. The culture medium was removed and saved for the determination of nitric oxide production through Cayman’s Griess assay. IL-6, TNFα, and Arginase 1 production was also determined utilizing collected medium. For the Greiss assay, in a 96-well plate, 100 μL of culture medium was used, and 50 μL of both Greiss reagent-1 and Greiss reagent-2 was added and incubated for 10 min. The absorbance was measured at 540 nm using a plate reader (SpectraMax iD5). The quantification was done using a calibration curve that was generated using the sodium nitrite standard obtained from Cayman Chemicals.
(§3) BV-2 cells were pretreated with the minor cannabinoids as described previously for 4 h in serum media (reduced to 5% FBS). Cells were stimulated with LPS (25 ng/mL in growth media) and allowed to incubate for 24 h. The culture medium was collected, and the concentrations of IL-6 (Cayman Chemicals), TNFα (ThermoFisher Scientific), and arginase 1 (ThermoFisher Scientific) cytokine expression were determined using specific monoclonal antibodies by ELISA kits as per manufacturer’s instructions.

CYP2C8 with CPR = biological target: T1, CYP2C8 with CPR (Homo sapiens, UniProt P10632); assay: NADPH activity assay, CYP2C8 with CPR; assay type: biochemical; conditions: CYP2C8, CBC 50 μM vs substrate-free
T1 construct: His-tag; made in house; host or cells: E. coli DH-5α with pTGro7 plasmid (CYP)
T1 sequence (P10632 1-490): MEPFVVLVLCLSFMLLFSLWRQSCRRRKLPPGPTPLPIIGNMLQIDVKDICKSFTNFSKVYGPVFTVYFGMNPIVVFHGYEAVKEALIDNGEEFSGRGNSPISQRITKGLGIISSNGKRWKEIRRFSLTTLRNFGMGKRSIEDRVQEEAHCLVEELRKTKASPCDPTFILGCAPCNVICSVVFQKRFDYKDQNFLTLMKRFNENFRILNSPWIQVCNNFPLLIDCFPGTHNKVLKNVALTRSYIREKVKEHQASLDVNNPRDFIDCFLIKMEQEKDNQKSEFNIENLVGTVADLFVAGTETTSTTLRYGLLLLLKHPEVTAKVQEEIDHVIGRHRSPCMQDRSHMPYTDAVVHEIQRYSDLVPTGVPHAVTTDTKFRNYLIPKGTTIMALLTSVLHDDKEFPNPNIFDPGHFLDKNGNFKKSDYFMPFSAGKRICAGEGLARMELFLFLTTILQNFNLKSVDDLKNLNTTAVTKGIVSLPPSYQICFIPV
T1 sequence (P16435 1-677 partner): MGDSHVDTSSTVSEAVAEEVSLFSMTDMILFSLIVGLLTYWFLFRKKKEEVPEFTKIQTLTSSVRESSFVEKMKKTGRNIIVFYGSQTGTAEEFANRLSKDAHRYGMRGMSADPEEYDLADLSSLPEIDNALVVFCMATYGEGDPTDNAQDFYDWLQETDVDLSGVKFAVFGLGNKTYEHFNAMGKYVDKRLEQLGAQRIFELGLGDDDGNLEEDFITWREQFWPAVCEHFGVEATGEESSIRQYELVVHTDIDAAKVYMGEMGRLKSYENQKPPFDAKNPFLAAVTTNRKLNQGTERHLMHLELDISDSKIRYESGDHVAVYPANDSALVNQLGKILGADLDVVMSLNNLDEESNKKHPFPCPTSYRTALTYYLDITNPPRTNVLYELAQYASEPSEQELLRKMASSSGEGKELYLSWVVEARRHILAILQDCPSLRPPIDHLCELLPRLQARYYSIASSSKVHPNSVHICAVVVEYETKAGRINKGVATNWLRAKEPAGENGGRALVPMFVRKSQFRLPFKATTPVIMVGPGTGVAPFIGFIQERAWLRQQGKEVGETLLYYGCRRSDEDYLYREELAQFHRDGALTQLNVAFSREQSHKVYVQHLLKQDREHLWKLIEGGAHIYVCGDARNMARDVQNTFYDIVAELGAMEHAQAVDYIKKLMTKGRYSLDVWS
Method: CYP-mediated NADPH oxidation was measured using kinetics mode in a Cary 300 UV–vis spectrometer (Agilent Technologies). 0.2 μM (final concentration) of CYP was taken in 0.1 M potassium phosphate buffer (pH 7.4) and incubated with 0.6 μM (final concentration) of CPR for 5 min with a reaction volume of 400 μL. The reaction was initiated with 200 μM of NADPH, and the absorption change was monitored over 10 min at 340 nm. The rate of NADPH consumption (or NADPH to NADP^+ conversion) was calculated by taking the molar extinction coefficient as 6.22 mM^–1 cm^–1 at 340 nm. To estimate the change in NADPH oxidation in the presence of CBC, both CYP and CPR were further incubated using CBC (final concentration 50 μM) for 5 min followed by measuring the change in absorbance at 340 nm as discussed earlier.

[2] = tested on: BV2 microglial cells, stimulated with lipopolysaccharide (LPS); assay: IL-6 ELISA in LPS-stimulated BV2 cells; assay type: cell-based, mouse; conditions: 0.1, 1.0, 2.5, 5.0 μM, LPS-stimulated
Method: as §1, §2, §3

[3] = biological target: T2, CYP2D6 in the presence of CPR (Homo sapiens, UniProt P10635); assay: Spectroscopic titration, CYP2D6–CPR complex; assay type: binding
T2 construct: His-tag; made in house; host or cells: E. coli DH-5α with pTGro7 plasmid (CYP)
T2 sequence (P10635 whole entry, one chain of several): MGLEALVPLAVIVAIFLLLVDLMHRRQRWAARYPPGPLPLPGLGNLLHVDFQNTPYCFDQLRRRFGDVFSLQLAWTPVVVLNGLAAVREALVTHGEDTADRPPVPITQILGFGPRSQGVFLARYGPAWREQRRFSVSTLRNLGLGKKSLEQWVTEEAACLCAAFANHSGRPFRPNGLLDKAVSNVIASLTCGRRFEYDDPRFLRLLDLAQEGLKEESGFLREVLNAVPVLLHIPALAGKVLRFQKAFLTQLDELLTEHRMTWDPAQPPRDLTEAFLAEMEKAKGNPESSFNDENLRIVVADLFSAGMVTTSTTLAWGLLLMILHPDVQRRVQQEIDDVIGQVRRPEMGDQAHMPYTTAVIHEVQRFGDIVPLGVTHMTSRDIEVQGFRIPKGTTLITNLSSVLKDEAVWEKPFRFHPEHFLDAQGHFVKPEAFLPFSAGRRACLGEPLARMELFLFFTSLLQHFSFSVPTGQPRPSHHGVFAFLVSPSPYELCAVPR
Method: For CBC titration to CYP–CPR complex, initially CYPs were dissolved in 400 μL of 0.1 M phosphate buffer (pH = 7.4) keeping the concentration between […]. Following this 50 μL of CPR (50 μM stock) was added to both cuvettes, and the final concentration of both of the proteins was 5–6 μM. Both proteins were initially mixed and incubated for 5 min followed by titration with CBC in the same process as mentioned above. The substrate-bound spectra were then subtracted from substrate-free spectra, and the extent of binding was analyzed using Origin Pro 2020.

Row | Structure (SMILES) | effect on TNFα production [1] | percentage increase of NADPH consumption in the presence of CBC (CYP2C8 with CPR) [%] | effect on IL-6 levels [2] | ΔAmax (spin state change due to heme perturbation) [3] | Kd ([3]; read-out: Kd(app))
1 | CCCCCc1cc(O)c2c(c1)OC(C)(CC/C=C(\C)CO)C=C2 (centres unmarked) [8′-hydroxy-CBC] | increase |  |  |  | 
2 | CCCCCc1cc(O)c2c(c1)OC(C)(CCC=C(C)C)C=C2 (centres unmarked) [CBC, Cannabichromene] |  | ~60 | Concentration dependent reduction | 0.04 ± 0.00 and 0.03–0.04 | 3.12 µM and < 10 µM and ~3 µM

Source: paper PMC11061835, “Elucidating the Mechanism of Metabolism of Cannabichromene by Human Cytochrome P450s” (Journal of Natural Products, 2024)
